# Tested on: not listed separately
# Experiment: Dissociation constant, pKa of the compound
# Assay type: physicochemical
row,pKa,Compound
1,0.5,NC(=S)N/N=C/c1ccco1
2,0.5,NC(=S)N/N=C/c1ccc[nH]1
3,5,N/C(S)=N/N=C/c1ccccn1

# Molecular target: T1, Tyrosinase (Agaricus bisporus) (UniProt O42713)
# T1 sequence (whole entry): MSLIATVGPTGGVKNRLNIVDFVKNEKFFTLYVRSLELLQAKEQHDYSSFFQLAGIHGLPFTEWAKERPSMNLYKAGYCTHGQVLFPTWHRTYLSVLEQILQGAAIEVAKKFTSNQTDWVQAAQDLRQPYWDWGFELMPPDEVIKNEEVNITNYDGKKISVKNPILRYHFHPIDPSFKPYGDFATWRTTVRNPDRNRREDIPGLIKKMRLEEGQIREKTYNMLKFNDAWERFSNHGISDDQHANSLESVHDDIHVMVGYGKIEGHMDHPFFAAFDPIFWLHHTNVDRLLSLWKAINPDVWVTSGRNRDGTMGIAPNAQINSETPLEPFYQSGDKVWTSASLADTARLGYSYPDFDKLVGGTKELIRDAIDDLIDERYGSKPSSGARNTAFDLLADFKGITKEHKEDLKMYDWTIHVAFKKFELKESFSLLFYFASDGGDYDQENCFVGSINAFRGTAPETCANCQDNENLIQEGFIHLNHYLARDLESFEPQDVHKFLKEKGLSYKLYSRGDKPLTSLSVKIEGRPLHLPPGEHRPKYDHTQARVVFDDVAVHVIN
# Experiment: Ratio IC50 for Kojic acid to compound for diphenolase activity of mushroom tyrosinase
row,Ratio IC50,Compound
1,9,NC(=S)N/N=C/c1cc(=O)c(O)co1

# Molecular target: T2, Tyrosinase (Agaricus bisporus, UniProt O42713)
# T2 sequence (O42713 whole entry): T1 sequence (whole entry)
# Description: Inhibition of diphenolase activity of mushroom tyrosinase using L-DOPA as substrate preincubated for 5 mins by spectroscopic method
row,IC50 [µM],Compound
1,70,NC(=S)N/N=C/c1ccc2ccccc2n1
2,402,NC(=S)N/N=C/c1cc2ccccc2[nH]1
3,11,NC(=S)N/N=C/c1cc(=O)c(O)co1
4,7,NC(=S)N/N=C/Cc1ccccc1
5,600,NC(=S)N/N=C/c1c[nH]c2ccccc12
6,> 2000,Cn1cc(/C=N/NC(N)=S)c2ccccc21
7,6,NC(=S)N/N=C/c1ccco1
8,11,NC(=S)N/N=C/c1ccc(F)cc1
9,> 2000,Cn1ccc2cc(/C=N/NC(N)=S)ccc21
10,> 2000,NC(=S)N/N=C/c1ccc2[nH]ccc2c1
11,> 2000,COc1coc(/C=N/NC(N)=S)cc1=O
12,> 2000,Cc1[nH]c2ccccc2c1/C=N/NC(N)=S
13,12,NC(=S)N/N=C/c1cccc2ccccc12
14,9,NC(=S)N/N=C/c1cccc(F)c1
15,32,NC(=S)N/N=C/c1ccccc1F
16,1100,NC(=S)N/N=C/c1ccc2ccccc2c1
17,8,NC(=S)N/N=C/c1ccc[nH]1
18,400,NC(=S)N/N=C/CCc1ccccc1
19,1700,Cn1c(/C=N/N=C(/N)S)cc2ccccc21
20,45,N/C(S)=N/N=C/c1ccccn1
